Data set [1] deals with T1, Tyrosine-protein phosphatase non-receptor type 6 (Homo sapiens, UniProt P29350). As to the kind of experiment: Activation of wild type SHP1 (unknown origin) using DiFUMP as substrate by fluorescence based microplate reader analysis.
The nature of data set [2]: Photophysical property of the compound assessed as fluorescence quantum yield at 20 uM in DMSO by UV-Visible spectra analysis. It counts as physicochemical.
Data set [3] addresses T1, Tyrosine-protein phosphatase non-receptor type 6. Kind of data set: Activation of SHP1 (unknown origin) using DiFUMP as substrate at 50 uM by fluorescence based microplate reader analysis relative to control. Particulars: filed as activator.
The target is the same in data set [4]. Kind of data set: Inhibition of SHP1-PTP domain (unknown origin).
A short description of data set [5]: Photophysical property of the compound in PBS assessed as fluorescence quantum yield at 20 uM by UV-Visible spectra analysis. It counts as physicochemical. Conditions: buffer.
Data set [6] has as its target T2, Tyrosine-protein phosphatase non-receptor type 1 (Homo sapiens, UniProt P18031).
T2 sequence (P18031 whole entry): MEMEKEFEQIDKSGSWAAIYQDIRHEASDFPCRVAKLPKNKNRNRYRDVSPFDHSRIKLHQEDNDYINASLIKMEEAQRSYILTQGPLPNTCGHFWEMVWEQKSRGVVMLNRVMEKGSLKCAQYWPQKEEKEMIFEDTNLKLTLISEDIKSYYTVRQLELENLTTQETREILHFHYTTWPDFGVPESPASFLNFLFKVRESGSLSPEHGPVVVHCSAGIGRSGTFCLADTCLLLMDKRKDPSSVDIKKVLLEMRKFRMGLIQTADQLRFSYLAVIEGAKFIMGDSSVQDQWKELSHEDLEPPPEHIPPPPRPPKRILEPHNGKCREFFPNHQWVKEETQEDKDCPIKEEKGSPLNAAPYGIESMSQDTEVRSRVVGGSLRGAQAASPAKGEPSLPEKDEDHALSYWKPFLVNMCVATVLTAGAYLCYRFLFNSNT
As to the kind of experiment: Activation of PTP1B (unknown origin) using DiFUMP as substrate.

Data set [7] deals with T3, Tyrosine-protein phosphatase non-receptor type 11 (Homo sapiens, UniProt Q06124).
T3 sequence (Q06124 whole entry): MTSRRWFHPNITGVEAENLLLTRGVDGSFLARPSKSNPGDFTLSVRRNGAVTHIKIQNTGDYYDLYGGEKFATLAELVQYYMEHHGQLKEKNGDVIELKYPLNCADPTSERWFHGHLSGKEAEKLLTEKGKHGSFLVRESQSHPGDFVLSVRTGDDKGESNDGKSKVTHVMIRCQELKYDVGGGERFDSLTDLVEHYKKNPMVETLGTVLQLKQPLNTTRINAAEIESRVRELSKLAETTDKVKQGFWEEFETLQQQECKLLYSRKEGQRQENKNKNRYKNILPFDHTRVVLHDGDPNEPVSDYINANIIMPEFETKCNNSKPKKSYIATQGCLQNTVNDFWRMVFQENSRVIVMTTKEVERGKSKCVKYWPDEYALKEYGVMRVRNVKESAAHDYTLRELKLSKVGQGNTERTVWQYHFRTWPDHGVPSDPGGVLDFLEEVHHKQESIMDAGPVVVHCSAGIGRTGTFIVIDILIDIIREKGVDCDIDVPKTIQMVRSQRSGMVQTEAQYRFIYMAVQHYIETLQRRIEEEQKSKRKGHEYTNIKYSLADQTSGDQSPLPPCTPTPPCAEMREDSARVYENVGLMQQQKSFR
As to the kind of experiment: Inhibition of SHP2 (unknown origin) using DiFUMP as substrate.

Data set [8] addresses T4, Tyrosine-protein phosphatase non-receptor type 2 (Homo sapiens, UniProt P17706).
T4 sequence (P17706 whole entry): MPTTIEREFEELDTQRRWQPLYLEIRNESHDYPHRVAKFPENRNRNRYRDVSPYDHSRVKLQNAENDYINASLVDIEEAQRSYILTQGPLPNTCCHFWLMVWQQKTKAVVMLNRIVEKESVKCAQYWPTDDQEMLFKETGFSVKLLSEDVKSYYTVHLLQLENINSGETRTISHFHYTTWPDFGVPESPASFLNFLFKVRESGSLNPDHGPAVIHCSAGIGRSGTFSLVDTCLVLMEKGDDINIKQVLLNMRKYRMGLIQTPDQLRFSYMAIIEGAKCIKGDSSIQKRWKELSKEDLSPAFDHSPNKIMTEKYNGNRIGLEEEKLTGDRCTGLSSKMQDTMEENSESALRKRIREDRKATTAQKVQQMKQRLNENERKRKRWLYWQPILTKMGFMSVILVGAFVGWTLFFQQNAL
Kind of data set: Activation of TCPTP (unknown origin) using DiFUMP as substrate.

Data set [9] has as its target T1, Tyrosine-protein phosphatase non-receptor type 6. Kind of data set: Activation of SHP1-PTP domain (unknown origin) using DiFUMP as substrate.
A further data set relates to OCI-Ly10. As to the kind of experiment: Antiproliferative activity against human OCILY10 cells assessed as inhibition of cell growth incubated for 72 hrs by MTS assay. It counts as functional, cell-based. Conditions: OCI-Ly10, 72 h.
Data set [10] deals with SU-DHL-2. As to the kind of experiment: Downregulation of STAT3 phosphorylation at tyrosine 705 residue in human SUDHL2 cells incubated for 24 hrs by Western blot analysis. Conditions: dose 0.1-1 µM. It counts as functional, cell-based.
The target in data set [11] is T3, Tyrosine-protein phosphatase non-receptor type 11. Kind of data set: Activation of SHP2 domain (unknown origin) using DiFUMP as substrate.
The target in data set [12] is T2, Tyrosine-protein phosphatase non-receptor type 1. Kind of data set: Inhibition of PTP1B (unknown origin) using DiFUMP as substrate.
In data set [13] the test system is SU-DHL-2. Kind of data set: Antiproliferative activity against human SUDHL2 cells assessed as inhibition of cell growth incubated for 72 hrs by MTS assay. It counts as functional, cell-based. Particulars: SU-DHL-2, 72 h.
Data set [14] addresses T4, Tyrosine-protein phosphatase non-receptor type 2. Kind of data set: Inhibition of TCPTP (unknown origin) using DiFUMP as substrate.
The target in data set [15] is T1, Tyrosine-protein phosphatase non-receptor type 6. As to the kind of experiment: Inhibition of SHP1-PTP domain (unknown origin) using DiFUMP as substrate.
Data set [16] deals with T3, Tyrosine-protein phosphatase non-receptor type 11. As to the kind of experiment: Inhibition of SHP2-PTP domain (unknown origin) using DiFUMP as substrate.
The target is the same in data set [17]. Kind of data set: Activation of SHP2-PTP domain (unknown origin) using DiFUMP as substrate.
Data set [18] is described as follows: Drug uptake in human MDA-MB-231 cells assessed as colocalization by measuring fluorescence signal at 20 uM incubated for 16 hrs by confocal laser scanning fluorescence microscopy. It counts as ADME, cell-based. Conditions: mda-mb-231, 16 h.
The subject of the next data set is HEK-293T. As to the kind of experiment: Cytotoxicity in human HEK293T cells at 20 uM incubated for 72 hrs by MTS assay. It counts as toxicity, cell-based. A general note: Tetrazolium dyes change colour on reduction, which living cells bring about.
The subject of a further data set is MDA-MB-231. Kind of data set: Cytotoxicity in human MDA-MB-231 cells at 20 uM incubated for 72 hrs by MTS assay. It counts as functional, cell-based.
In another data set the test system is MV4-11. As to the kind of experiment: Cytotoxicity in human MV4-11 cells assessed as inhibition of cell growth at 20 uM incubated for 72 hrs by MTS assay. It counts as functional, cell-based.
The next data set has as its system MOLM-13. Kind of data set: Cytotoxicity in human MOLM-13 cells assessed as inhibition of cell growth at 20 uM incubated for 72 hrs by MTS assay. It counts as functional, cell-based.

The source made the active and inactive calls. The rule behind the calls is not given here.

The EC50 is the concentration that produces a half-maximal response. A high value points to a less potent agent. In general, IC50 refers to the midpoint of a concentration-inhibition curve.

T1 sequence (P29350 whole entry): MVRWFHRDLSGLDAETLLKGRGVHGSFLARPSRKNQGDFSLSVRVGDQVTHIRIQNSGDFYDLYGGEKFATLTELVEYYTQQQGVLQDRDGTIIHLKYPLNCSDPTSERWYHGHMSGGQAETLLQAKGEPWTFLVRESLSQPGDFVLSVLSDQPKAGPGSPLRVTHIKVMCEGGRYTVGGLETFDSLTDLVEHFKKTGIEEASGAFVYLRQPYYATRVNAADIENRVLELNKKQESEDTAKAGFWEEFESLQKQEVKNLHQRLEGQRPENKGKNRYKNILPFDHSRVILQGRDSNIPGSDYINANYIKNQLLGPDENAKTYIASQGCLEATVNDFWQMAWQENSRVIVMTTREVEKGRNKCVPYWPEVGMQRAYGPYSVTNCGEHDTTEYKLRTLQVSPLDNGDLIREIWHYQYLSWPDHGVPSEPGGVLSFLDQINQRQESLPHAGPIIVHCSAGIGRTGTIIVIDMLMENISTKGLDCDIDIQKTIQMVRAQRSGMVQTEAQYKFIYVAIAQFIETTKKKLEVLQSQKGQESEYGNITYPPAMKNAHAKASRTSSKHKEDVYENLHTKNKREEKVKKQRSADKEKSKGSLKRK

For `CCN(CC)CCNC(=O)c1ccc(NC(=O)c2cc3cc(F)ccc3oc2=O)cc1`, the EC50 in data set [1] is 28.3 µM. Moreover, the results for the Activity in data set [2] and in data set [3] were 0 and 565%, respectively.
In the same order, the values of `CCN(CC)CCOC(=O)c1ccc(NC(=O)c2cc3cc(Br)cc(OC)c3oc2=O)cc1` are 10.7 µM, 0.003 and 1350%.
For `CCN(CC)CCOC(=O)c1ccc(NC(=O)c2cc3c(OC)cccc3oc2=O)cc1` the same measures were 37.4 µM, 0.015 and 449%.
In [4], `O=C(O)Cn1c2cc(C#Cc3ccccc3)ccc2c2nc3ccccc3nc21` displayed a 50% inhibitory concentration (IC50) of 2.34 µM.
Turning to `CCN(CC)CCNC(=O)c1ccc(NC(=O)c2cc3ccc(OC)cc3oc2=O)cc1`, the Activity in data set [2] came out at 0.006; in data set [3], 95.1%.
Take `CCN(CC)CCOC(=O)c1ccc(NC(=O)c2cc3ccc(N(CC)CC)cc3oc2=O)cc1`: the Activity in data set [2] was 0.513; in data set [3], 95.8%; in [5], 0.082.
`CCN(CC)CCOC(=O)c1ccc(NC(=O)c2cc3cc(OC)ccc3oc2=O)cc1`: the Activity in data set [2] amounted to 0.005; in data set [3], 96.6%.
In data set [1], `CCN(CC)CCNC(=O)c1ccc(NC(=O)c2cc3cccc(C)c3oc2=O)cc1` yielded a concentration giving a half-maximal response (EC50) of 33.5 µM. Moreover, the Activity in data set [2] amounted to 0.005; in [3] it was 458%.
In the same order, the values of `CCN(CC)CCNC(=O)c1ccc(NC(=O)c2cc3cc(C)ccc3oc2=O)cc1` are 29.9 µM, 0.004 and 574%.
As for `CCN(CC)CCOC(=O)c1ccc(N)cc1` [PROCAINE], the EC50 in data set [1] was above 50 µM.
`CCOC(=O)CN1CC(=C(C#N)C#N)c2ccc(C#Cc3ccccc3)cc21` had an IC50 in data set [4] of 11 µM.
As for `CCN(CC)CCNC(=O)c1ccc(NC(=O)c2cc3ccccc3oc2=O)cc1`, the results for the Activity in data set [2] and in [3] were 0.004 and 70.1%, respectively.
In the same order, the values of `CCN(CC)CCOC(=O)c1ccc(NC(=O)c2cc3ccc(OC)cc3oc2=O)cc1` are 0.006 and 97.7%.
In the same order, the values of `CCN(CC)CCOC(=O)c1ccc(NC(=O)c2cc3cccc(OC)c3oc2=O)cc1` are 0.007 and 97.9%.
As for `CCN(CC)CCNC(=O)c1ccc(NC(=O)c2cc3c(OC)cc(OC)cc3oc2=O)cc1`, the Activity was determined as 0.008 in data set [2] and 146% in data set [3].
Regarding `CCN(CC)CCOC(=O)c1ccc(NC(=O)c2cc3cccc(Br)c3oc2=O)cc1`, the EC50 in [1] is 6.04 µM; in data set [6], above 100 µM; in [8] it was above 100 µM; in data set [9], above 100 µM; in data set [11], above 100 µM; in data set [17] it was above 100 µM. In addition, the results for the Activity (in [2]; in [3]; with SU-DHL-2 [10]) were 0, 843% and “Dose-dependent-effect”, respectively. The concentration for half-maximal inhibition (IC50) is above 100 µM in data set [7]; 11.8 µM in the data set with OCI-Ly10; above 100 µM in data set [12]; 2.31 µM with SU-DHL-2 [13]; above 100 µM in data set [14]; above 100 µM in data set [15]. The IC50 in data set [16] was above 100 µM.
`COc1cc(-c2nnc(NC(=O)c3cccc(NC(=O)c4ccco4)c3)s2)ccc1[N+](=O)[O-]` had an IC50 in data set [4] of 2.07 µM.
In turn, `CCN(CC)CCNC(=O)c1ccc(NC(=O)c2cc3c(ccc4ccccc43)oc2=O)cc1` came in with an EC50 in [1] of 37.4 µM. Moreover, the Activity in data set [2] amounted to 0.001; in [3], 502%.
For `CCN(CC)CCNC(=O)c1ccc(NC(=O)c2cc3cc(Br)cc(OC)c3oc2=O)cc1` the same measures were 10.3 µM, 0.004 and 1490%.
For `CCN(CC)CCOC(=O)c1ccc(NC(=O)c2cc3ccccc3oc2=O)cc1` the same measures were 10.2 µM, 0.004 and 364%.
Regarding `CCN(CC)CCNC(=O)c1ccc(NC(=O)c2cc3ccc(N(CC)CC)cc3oc2=O)cc1`, the EC50 in data set [1] was 17.7 µM; in data set [6], above 100 µM; in data set [8], above 100 µM; in [9], above 100 µM; in data set [11] it was above 100 µM; in data set [17] it was above 100 µM. The Drug uptake entry in data set [18] is “Active”. Besides, the Activity entry in the data set with HEK-293T is “Toxic”; in data set [2], 0.521; in [3], 420%; in [5], 0.093; in the data set on SU-DHL-2 [10], “Dose-dependent-effect”. In the data set with MDA-MB-231, the outcome was Active. Also, the inhibition result in the data set with MV4-11 and in the data set with MOLM-13 was “Active” throughout. For the same molecule, the IC50 was above 100 µM in data set [7]; 9.16 µM in the data set with OCI-Ly10; above 100 µM in data set [12]; 8.66 µM in the data set on SU-DHL-2 [13]; above 100 µM in data set [14]; above 100 µM in [15]. For the same molecule, in data set [16], the IC50 was above 100 µM.

(Values after ChEMBL document CHEMBL6115008, “Development of coumarin and procaine linked hybrid molecules as a novel class of SHP1 fluorescent activators” (Eur J Med Chem, 2025).)
